Test results from US20100298370A1, “BENZOTHIAZOLYL THIENOPYRIDINE DERIVATIVES AND USES THEREOF” (priority 2006, published 2010).
“Also recorded” adds a separate entry of the source.

Tests used:
[1] = test system: carrageenan-induced paw edema in BALB/c mice; experiment: Carrageenan-induced paw edema; format: in vivo
Method: FIG. 1 is a graph showing the anti-inflammatory activity of Compounds 1-6 administered to mice intraperitoneally (i.p.) at 20 mg/kg, 1 hour before induction of paw edema (10-12 mice per group). The swelling of paws was measured 4 hours after induction, compared to controls and expressed as difference in paw thickness in mm (y-axis). The results were statistically evaluated by Student's t-test and statistical significance is indicated by one, two or three stars ([…]).
Acute edema was induced in the […] of BALB/c mice (10-12 mice/group) by injecting 0.02 ml of freshly prepared solution of 2% carrageenan (Sigma) under the plantar region of right hind paw (Tones et al., 2000). Carrageenan was injected 60 min after administration of the test compounds. The right paw received 0.02 ml of saline, which served as a control. The paw thickness was measured at 2, 4 and 24 hours after carrageenan challenge using a Mitutoyo engineer's micrometer. The difference between right and left pad was expressed as mean±SEM. Test compounds were injected intraperitoneally (i.p.) (20 mg/kg) in 0.5% Tween 80 in saline and vehicle control group received 0.5% Tween 80 in saline.
Compound 1 reduced paw edema by 33% and the reduction was statistically significant as determined by Student's t-test with […].

[2] = test system: oxazolone-induced ear swelling in BALB/c mice; experiment: Delayed-type hypersensitivity (DTH), oxazolone mouse ear-swelling test; format: in vivo; conditions: for inhibition of ear swelling (in words): DTH, FIG. 2, oral 50 mg/kg; for reduction of ear swelling: per os 50 mg/kg, 1 hour prior to challenge, after 48 hours
Method: FIG. 2 is a graph showing the anti-inflammatory activity of Compounds 1, 2, 4, 5, 6 administered to mice orally at 50 mg/kg in a model of delayed-type hypersensitivity (DTH) (11-13 mice per group). The results for dexamethasone (10 mg/kg i.p.), a steroid positive control, are also shown. The y-axis represents difference in ear thickness in mm compared to control. The results were statistically evaluated by Student's t-test and statistical significance is indicated by one, two or three stars ([…]).
BALB/c mice (Velaz, Prague, Czech Republic; 8 week-old; 10-15 animals per group) were sensitized by topical application of a 2% oxazolone (4-ethoxymethylene-2-phenyl-2-oxazolin-5-one; Sigma, St Louis, Mo.) solution in acetone/olive oil (4:1 vol/vol) to a shaved abdomen area (50 μl) and to each paw (5 μl)(Lange-Asschenfeldt et al., 2002). Topical oxazolone administration induces immunomodulatory activity. Five days after sensitization, right ears were challenged by topical application of 10 μl of a 1% oxazolone solution, whereas left ears were treated with vehicle alone. Test compounds were administered 1 hour prior to challenge. The extent of inflammation was measured 24 hours and 48 hours after challenge, using the mouse ear-swelling test. Animals were numbered (tail marking) and weighed and the thickness of both ears was recorded with a constant-loading dial micrometer (Mitutoyo, Tokyo). The unpaired Student t-test was used for statistical analyses. Test compounds were administered per os at 50 mg/kg as a suspension with 0.5% methylcellulose. The vehicle control group received the same volume of 0.5% methylcellulose.

[3] = target: T1, VEGF binding to heparin (HS-GAG) (Homo sapiens, UniProt P15692); experiment: In vitro VEGF to HS-GAG binding assay (ELISA, heparin-BSA coated plate)
T1 construct: purchased Research and Development Systems
T1 sequence (P15692 27-191 isoform P15692-4): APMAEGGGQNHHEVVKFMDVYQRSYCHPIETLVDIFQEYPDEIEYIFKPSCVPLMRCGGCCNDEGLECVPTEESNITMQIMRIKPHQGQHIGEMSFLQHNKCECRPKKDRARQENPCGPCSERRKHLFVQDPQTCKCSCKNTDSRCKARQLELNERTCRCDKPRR
Source text: An in vitro assay was used to assess the ability of test compounds of general formulas I and II to inhibit the interaction of VEGF with HS-GAGs. The assay was designed to for determine the concentration required for 50% inhibition (IC-50) for each specific compound. The test compounds were purchased from Life Chemicals Ltd. (Kiev, Ukraine), and the GAG used was heparin (heparin grade I-A; Sigma) conjugated to bovine serum albumin (Sigma) and diluted 1:200 in phosphate-buffered saline (PBS; pH 7.3). The heparin was added to a 96-well polystyrene ELISA plate (NUNC; 0.1 ml per well) and incubated overnight at 4° C. Following the incubation, the plate was washed thoroughly, by immersion, with de-ionized water and then with PBS (pH 7.3) containing Tween 20 (Sigma, 0.05%). The ELISA plate was then blocked with BSA (ICN, 3%, 200 μl per well) for 1 hour at room temperature. Following blocking, the plate was washed with de-ionized water, and then twice with PBS (pH 7.3) containing Tween 20. Recombinant human VEGF (Research and Development Systems) dissolved in PBS supplemented with BSA (0.1%) was added to the ELISA plate. The test compounds were dissolved in DMSO (MERCK), diluted in PBS and added to the wells at concentrations ranging from 0.01 to 200 μM to obtain a final volume 100 μl per well, and incubated for 60 minutes at room temperature with shaking. Following incubation, the plate was washed with de-ionized water and PBS (pH 7.3) containing Tween 20. Anti-human VEGF (1:2000; Research and Development Systems) diluted in PBS supplemented with BSA (1%) was added to the ELISA plate (100 per well) and incubated for 60 minutes at room temperature with shaking. Following incubation, the plate was washed with de-ionized water and then with PBS (pH 7.3) containing Tween 20. Streptavidin-HRP (1:200; Research and Development Systems Cat. No. DY998) diluted in PBS supplemented with BSA (1%) was added to the ELISA plate (100 per well) and incubated for 20 minutes at room temperature with shaking. The plate was then washed with de-ionized water and twice with PBS (pH 7.3) containing Tween 20. The peroxidase substrate chromogen tetramethyl benzidine (TMB; Dako) was added (100 μl per well) to the ELISA plate and incubated at room temperature. After 15 minutes, ELISA Stop Solution (hydrochloric acid 1N, sulfuric acid 3N) was added (100 μl per well) to stop the peroxidase catalyzed colorimetric reaction. The Optical Density (OD) of the samples was measured at 450 nm using an ELISA plate reader (Dynatech MR5000). Data were analyzed with Graphpad Prism software and IC-50 values were determined.
Percent inhibition at 30 μM concentration is shown and for selected compounds IC-50 was established.

[4] = 20 mg/kg i.p., 60 min before carrageenan, 4 hours after induction

Compound	reduction of paw edema [1, 4]	reduction of ear swelling [2]	inhibition at 30 µM [3]	IC50 [3]	other results
CN1CCc2c(sc(NC(=O)CCN3C(=O)c4ccccc4C3=O)c2-c2nc3ccccc3s2)C1 [Compound 6, N-[3-(2-benzothiazolyl)-4,5,6,7-tetrahydro-6-methylthieno[2,3-c]pyridin-2-yl]-3-(1,3-dihydro-1,3-dioxo-2H-isoindole-2)propanamide]	19.5%	19.1%	29%		inhibition of ear swelling (in words) [2]: significantly inhibited ear swelling
CN1CCc2c(sc(NC(=O)c3cc4ccccc4o3)c2-c2nc3ccccc3s2)C1 [Compound 5, N-[3-(2-benzothiazolyl)-4,5,6,7-tetrahydro-6-methylthieno[2,3-c]pyridin-2-yl]-benzo[b]furan-2-carboxamide]	29.2%	49.3%	81%	140 nM	inhibition of ear swelling (in words) ([2]; 50 mg/kg): significantly inhibited ear swelling; also recorded: Particularly strong response, comparable with the steroid dexamethasone
CC(C)N1CCc2c(sc(NC(=O)c3ccc(N(C)C)cc3)c2-c2nc3ccccc3s2)C1 [Compound 2, N-[3-(2-benzothiazolyl)-4,5,6,7-tetrahydro-6-(1-methylethyl)thieno[2,3-c]pyridin-2-yl]-4-(dimethylamino)benzamide]	28.1%	18.1%	53%	1700 nM	
CCN1CCc2c(sc(NC(=O)c3ccc(C#N)cc3)c2-c2nc3ccccc3s2)C1 [Compound 1, N-[3-(2-benzothiazolyl)-4,5,6,7-tetrahydro-6-ethylthieno[2,3-c]pyridin-2-yl]-4-cyanobenzamide]	33%	41.4%	82%	220 nM	
C[C@@H]1C[C@H]2[C@@H]3CCC4=CC(=O)C=C[C@]4(C)[C@@]3(F)[C@@H](O)C[C@]2(C)[C@@]1(O)C(=O)CO [dexamethasone, reference compound]					reduction in ear swelling ([2]; dexamethasone positive control, i.p. (10 mg/kg per FIG. 2)): 46.5%
COc1cccc(OCC(=O)Nc2sc3c(c2-c2nc4ccccc4s2)CCN(C)C3)c1 [Compound 4, N-[3-(2-benzothiazolyl)-4,5,6,7-tetrahydro-6-methylthieno[2,3-c]pyridin-2-yl]-2-(3-methoxyphenoxy)acetamide]	22.8%	33.5%	65%	1800 nM	inhibition of ear swelling (in words) [2]: significantly inhibited ear swelling
O=C(COc1ccc(Cl)cc1)Nc1sc2c(c1-c1nc3ccccc3s1)CCN(Cc1ccccc1)C2 [Compound 27, N-[3-(2-benzothiazolyl)-4,5,6,7-3-tetrahydro-6-phenylmethylthieno[2,3-c]pyridin-2-yl]-2-(4-chlorophenoxy)acetamide]			55%		
CN1CCc2c(sc(NC(=O)c3cccs3)c2-c2nc3ccccc3s2)C1 [Compound 7, N-[3-(2-benzothiazolyl)-4,5,6,7-tetrahydro-6-methylthieno[2,3-c]pyridin-2-yl]-2-thiophenecarboxamide]		32.7%	70%	1700 nM	reduction of paw edema ([1]; 50 mg/kg dose, separate experiment (data not shown)): 18.5%
O=C(Nc1sc2c(c1-c1nc3ccccc3s1)CCN(Cc1ccccc1)C2)c1cc(Cl)sc1Cl [Compound 22, N-[3-(2-benzothiazolyl)-4,5,6,7-tetrahydro-6-phenylmethylthieno[2,3-c]pyridin-2-yl]-3-(2,5-dichloro)thiophenecarboxamide]			39%		
CC(=O)N1CCc2c(sc(NC(=O)c3ccc(C#N)cc3)c2-c2nc3ccccc3s2)C1 [Compound 37, N-[3-(2-benzothiazolyl)-4,5,6,7-tetrahydro-6-acetylthieno[2,3-c]pyridin-2-yl]-4-cyanobenzamide]			75%	350 nM	
CSc1ccc(CC(=O)Nc2sc3c(c2-c2nc4ccccc4s2)CCN(C)C3)cc1 [Compound 3, N-[3-(2-benzothiazolyl)-4,5,6,7-tetrahydro-6-methylthieno[2,3-c]pyridin-2-yl]-2-(4-methylthiophenyl)acetamide]	32.1%		60%		
O=C(Nc1sc2c(c1-c1nc3ccccc3s1)CCN(Cc1ccccc1)C2)C1COc2ccccc2O1 (stereo not drawn) [Compound 33, N-[3-(2-benzothiazolyl)-4,5,6,7-tetrahydro-6-phenylmethylthieno[2,3-c]pyridin-2-yl]-2,3-dihydro-1,4-benzodioxin-2-carboxamide]			50%		
COc1cc2ccccc2cc1C(=O)Nc1sc2c(c1-c1nc3ccccc3s1)CCN(C)C2 [Compound 15, N-[3-(2-benzothiazolyl)-4,5,6,7-tetrahydro-6-methylthieno[2,3-c]pyridin-2-yl]-3-methoxy-2-naphthalenecarboxamide]			43%		
O=C(Nc1sc2c(c1-c1nc3ccccc3s1)CCN(Cc1ccccc1)C2)c1ccc(Br)s1 [Compound 24, N-[3-(2-benzothiazolyl)-4,5,6,7-tetrahydro-6-phenylmethylthieno[2,3-c]pyridin-2-yl]-2-(5-bromo)thiophenecarboxamide]			52%		
